From a melting point compilation (Tetko et al.; mined from patent text by program, amines drawn as free bases though some values may be those of a salt)
Starred links: 1 amine or outer side, 2 acyl side, 3 side chain; linkers in the order of their positions; H or OH if unused. Residues, ends and D or L forms follow the SMILES beside them. *: point of attachment. 4Abz = Nc1ccc(C(=O)O)cc1; CO = O=C([*:1])[*:2]; CF3 = FC(F)(F)*

SMILES | melting point [°C]
Nc1nc(N)c2cc(Cc3ccccc3Cl)ccc2n1 | 220 to 222
CCOP(=O)(/C=C/c1cn(-c2ccccc2)nc1OCc1ccc(OCc2nc(-c3ccc(CC(=O)O)cc3)oc2C)c(OC)c1)OCC | 119 to 120
CC(C#Cc1ccc(C=Cc2cccnc2)o1)N(O)C(N)=O (centres undefined) | 166
C1=C(c2nc(COc3ccc(CCCn4ccnc4)cc3)co2)CCc2ccccc21 | 99 to 100
ClCc1ccc(-c2ccc(CCl)cc2)cc1 | 137 to 138
CC(C)c1ccc(CCC(O)(P(=O)(O)O)P(=O)(O)O)cc1 | 174
Nc1ncc(-c2cccc3ccc(Br)cc23)o1 | 189 to 190
O=[N+]([O-])c1ccc(C#CBr)cc1 | 170
CCCc1[nH]c2ccc(OC)cc2c1C=O | 166 to 168
Cc1cc2c(NCc3ccc4c(c3)OCO4)nc(Cl)nc2s1 | 162
CN1CCN(c2cc3c(F)cccc3c(=O)[nH]2)CC1 | 238 to 239
Cc1ccc(-c2cn(C)cc(-c3cccc(C(F)(F)F)c3)c2=O)cc1C | 150 to 153
CC(C)(C)c1ccc(Nc2nnc(Cc3ccc(O)nc3)c3ccccc23)cc1 | 134 to 135
CNc1nc2c(c(N3CCN(C=O)CC3)n1)SCCC2 | 149 to 151
COc1ccc(S(=O)(=O)N2c3ccccc3-c3ccccc3C2C)cc1C (centres undefined) | 171 to 173
CCN(CC)c1ccc(-c2cc(-c3ccc(C(=O)O)cc3)ccc2CC(O)CO)cc1C(C)(C)C (centres undefined) | 130
NC(=O)CN1C(=O)C[C@@H]2CCCC[C@@H]21 (relative stereo) | 145 to 146
O=C(O)c1ccc(OCC(O)c2cc3ccccc3o2)cc1 (centres undefined) | 153 to 155
CCOC(=O)CC[C@H](NC(=O)c1csc(CCCc2coc3nc(N)nc(N)c23)c1)C(=O)OCC | 79 to 80
CCOC(=O)CN1CCc2c(sc(N)c2C(=O)c2ccccc2)C1 | 115 to 117
COc1cc(Cc2cnc(N)nc2N)cc2c1OC(C)(C)C=C2Br | 238 to 239
CSc1ccc(-c2nn(Cc3ccc(Cl)cc3Cl)c(=O)cc2-c2ccc(F)cc2)cc1 | 139 to 140
O=c1nc(-c2ccc(O)cc2)oc2ccccc12 | 273 to 275

SMILES | melting point [°C]
O=Cc1c[nH]c2c1ccc1c3cccc(F)c3[nH]c12 | > 250
O=C(N[C@@H]1CCC[C@H]1O)C(O)=CC(=O)c1cc(Cc2ccc(F)cc2)cn(Cc2ccccc2F)c1=O | 67 to 69
Nc1ncnc2sc(Cc3ccncc3)c(-c3ccc(NC(=O)Nc4cccc(C(F)(F)F)c4)cc3)c12 | 162 to 166
CNC(=O)CCSSCCC(=O)NC | 113 to 115
CC=CCn1c(C)c(C)c2cnnc(SCc3ccc(Cl)cc3Cl)c21 | 81 to 85
N#CC1=Cc2cc(Br)ccc2OC1 | 132 to 133
Cc1c(SCCCSc2ncccn2)ccnc1CNc1cnc2ccccc2c1 | 132 to 133
COc1ccc(S(=O)(=O)C2(C(=O)NO)CCN(Cc3ccc(OCCN4CCCCC4)cc3)CC2)cc1 | 114
COC(=O)NC(C)(C(=O)NS(=O)(=O)c1ccc(C)cc1)C(C)C (centres undefined) | 120 to 122
Cc1cc(C(N)=O)ncc1C(c1c(F)ccc(F)c1F)S(=O)(=O)CC1CC1 (centres undefined) | 222 to 223
CCc1cc2c(=O)[nH]c(CO)nc2s1 | 202
COC(=O)c1ccccc1COc1ccccc1Br | 73 to 74
Cc1c(C(=O)N(C)c2ccc(N3CCC(O)CC3)c(C#N)c2)cnn1-c1ccc(F)cc1 | 211 to 212
COCOCc1ccccc1C1Cn2cc(C(=O)NCc3ccc(Cl)cc3)c(=O)c3cc(CN4CCOCC4)cc(c32)O1 (centres undefined) | 202 to 204
COc1nc(N)nc(-c2ccc(S(C)=O)cc2)c1-c1ccc(=O)n(C(C)C)n1 (centres undefined) | 127 to 130
N#Cc1cc(C(F)(F)F)[nH]c1-c1ccccc1Cl | 151 to 152
O=C(O)C[C@H](NC(=O)OCc1ccccc1)C(=O)Nc1cc(Cc2n[nH]c(=O)c3ccccc23)ccc1F | 188 to 190
CCc1ccc2c(c1)C=Cc1cc(C)ccc1C2c1cn(Cc2ccc(C(=O)O)o2)c(=O)[nH]c1=S (centres undefined) | 165
Cc1nsc(N(C)C(=O)C2CCCCC2)n1 | 96
COc1cc2c(cc1Nc1ncc(Cl)c(N[C@@H]3CCCC[C@H]3NS(C)(=O)=O)n1)CCN(CCNC(C)=O)CC2 | 108 to 118
Nc1ccccc1Cn1cc(C(F)(F)F)ccc1=O | 83.4 to 85.3
CS(=O)(=O)Nc1cc2c(cc1Oc1ccccc1)C(=O)C(Sc1ccccc1)(Sc1ccccc1)C2 | 162
CN(O)C(=O)c1ccc(NCCCc2ccccc2)cc1 | 107 to 108

SMILES | melting point [°C]
CC(C)C(NC(=O)Nc1ccc(C(=O)NCC(=O)O)cc1)C(=O)N1CCCC1C(=O)NC(C(=O)C(F)(F)F)C(C)C (stereo not drawn) ({Gly-4Abz-CO}-Val-Pro-Val-CF3; configuration not given here) | 98 to 128
CCCc1c(C(=O)C(C)C)c2ccc(C(N)=O)cc2n1Cc1ccccc1C | 190 to 191
CCCOC1C(O)C(CO)OC1n1cnc2c(NC(=O)C(C)C)nc(NC(=O)C(C)C)nc21 (centres undefined) | 140 to 142
O=[N+]([O-])c1ccccc1-c1ccc2c(c1)S(=O)(=O)NC(C1CCCCC1)N2 (centres undefined) | 204 to 207
CNC(=O)CNC(=O)c1cncc(F)c1 | 201 to 202
CCCc1nn(-c2ccc(C(F)(F)F)cn2)cc1CCCOc1cc(CCC(=O)O)n(-c2ccccc2)n1 | 149 to 150
CC(c1ccc2ncccc2c1)n1nnc2ccc(-c3cnn(CCO)c3)nc21 (centres undefined) | 188 to 191
CC(C)(C)OC(=O)NN=C1CCN(C(=O)OC(C)(C)C)CC1 | 172 to 174
C#CCN(C)c1c(-c2c(F)cc(F)cc2F)c(OC)nc2ncnn12 | 119
COC1(c2cccc(OCc3ccc(-n4cnc(C)c4)cc3)c2)CCOCC1 | 120 to 121
CC(=N)N(C)C1CCCCC1 | 108 to 110
N#Cc1cnc2cc(F)ccc2c1O | > 250
O=C1C(=O)c2ccccc2C2=C1SCC1(CCN(CC(O)COc3ccc4ccccc4c3)CC1)O2 (centres undefined) | 164 to 167
CCCNC(C)=NC(=Nc1ccccc1)N1CCOCC1 | 101 to 103
Cc1cc2c(cc1-c1csc(C=CC(=O)O)c1)C(C)(C)CCC2(C)C | 215 to 220
CCCCOCCCNC(=O)C(C)(C(C)C)C(C)C | 40
Nc1ncccc1OCc1cccc(Cl)c1F | 98 to 100
O=C(SCC(SC(=O)c1ccccc1)C(=O)O)c1ccccc1 (centres undefined) | 116 to 118
CCCc1nc2cccc(C(=O)OC)c2n1Cc1ccc(-c2ccccc2-c2nc(=O)o[nH]2)cc1 | 224 to 226
O=C(CCl)N[C@H]1CC[C@H](O)CC1 | 149 to 151
Cc1nc(Nc2ccccc2)sc1-c1cccnc1 | 178 to 180
C#CCn1c(=O)oc2cc(Cl)c(-c3ccc(C(F)(F)F)n(C)c3=O)cc21 | 187 to 189

The remaining lines, values ahead:

melting point [°C] | SMILES
174 | CCOC(=O)Nc1cccc2c1CN(C)CC2c1ccccc1 (centres undefined)
150 to 152 | CCOC(=O)c1[nH]c2ccccc2c1Br
126 | COC(=O)c1cc(S(C)(=O)=O)c(F)cc1Br
91.5 to 92.5 | CCOC(=O)c1cc(NC(C)=O)ccc1OC(C)=O
287 to 289 | CC1(C)C(=O)Nc2cc(-c3nc4ccc(Cl)cc4[nH]3)ccc21
195 to 197 | O=C(O)COc1cccc(C(=O)O)c1OCC(=O)O
152 to 154 | COc1cc(-c2ccc(Cl)s2)cc2oc(=O)c(C)c(C)c12
156 | CC(C)c1ccc(NC(=O)C2CCCc3ccccc32)cn1 (centres undefined)
244 to 245 | Cc1c(Cc2ccc(C(C)C)cc2)c2c(c(C)c1NC(=O)CC(C)(C)C)C(O)C(C)(C)O2 (centres undefined)
231 to 233 | CCC(NC(=O)OC)c1ccc(Cl)c2nc3n(c12)CCCN3c1c(Cl)cc(Cl)cc1Cl (centres undefined)
335 | O=c1[nH]c2nc3ccccc3n2c(=O)n1C1CCCCC1
90 to 92 | COc1ccc(C(=O)OC2CCCC2)nc1Cl
205 to 206 | O=C(Nc1ccccc1Cl)N1CCc2cc(S(=O)(=O)N3CCN(c4cccc(Cl)c4)CC3)ccc21
> 350 | CCCc1nn(C)c2c(=O)[nH]c(Cc3ccc(S(=O)(=O)O)cc3)nc12
160 to 173 | CCCc1c(C)c2ccc(O)cc2oc1=O
213 to 215 | COc1cccc(CNC(=O)c2cc3c(=O)n(Cc4ccc([N+](=O)[O-])nc4)c(=O)n(C)c3s2)c1

melting point [°C] | SMILES
62 to 72 | CC(C)C1COC(c2ccccc2CO)=N1 (centres undefined)
100 to 103 | CN(C)C(=O)c1cccnc1C(=O)c1cccc(C(F)(F)F)c1
149 to 150 | CC(C)(C)c1cc(C(C)(C)C)c(O)c(C(=O)Nc2ccc(S(=O)(=O)C(F)(F)F)cc2Cl)c1O
184 to 185 | CCOC(=O)c1ccc(C(=O)Nc2ccc3c(c2)CCCC(=O)N3C)cc1
89 to 91 | CC1(C)CC(=O)C(C(=O)Nc2cccc(Cl)c2)C(=O)C1
76 to 79 | CC(=O)O[C@H]1CC=CO[C@@H]1COS(=O)(=O)c1ccc(C)cc1
163 to 165 | NCC(=O)N1c2ccccc2N(Cc2ccccc2)C(=O)[C@H]2CCC[C@H]21 (relative stereo)
153 to 154 | Cc1cccc(Cl)c1C1N=C(N(C)C)Cc2ccccc21 (centres undefined)
158 to 160 | CC1Cc2c(c(Cl)cc(F)c2N2C(=O)c3ccccc3C2=O)O1 (centres undefined)
168 to 170 | O=C(CCN1C(=O)CSC1=S)Nc1ccccc1O
255 to 257 | O=C1Nc2ccccc2C12COc1c(Cl)cc3c(c12)OCCO3 (centres undefined)
162 to 165 | CC(=O)OC(C)(C)C(=O)Nc1c(C(=O)c2ccccc2)[nH]c2cc(Cl)ccc12
213 to 214 | Cc1ccc(-c2cccc(/C=C/C(=O)Nc3ccc(-c4cccnc4)cc3)c2)cc1
148 to 150 | CCOC(=O)C1=C(COCCNc2nccc(=O)[nH]2)NC(C)=C(C(=O)OC)C1c1ccccc1Cl (centres undefined)
212 to 215 | Cc1ccc(S(=O)(=O)Nc2ccc(C(N)=O)cc2C(N)=O)cc1
